# Experimental data published in the supplement of paper PMC10307832.
# Key:
# Test in all cases: relative viability (nuclei count vs DMSO), 5 days (fraction); higher = more cells survive
# PAC-1 + Alpelisib = compound: C=CCc1cccc(/C=N/NC(=O)CN2CCN(Cc3ccccc3)CC2)c1O [PAC-1] + Cc1nc(NC(=O)N2CCC[C@H]2C(N)=O)sc1-c1ccnc(C(C)(C)C(F)(F)F)c1 [Alpelisib] (partner 2 µM)
# How it was run: (§1)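 Each reported value is a median over duplicate plates. It expresses relative viability: treated-well nuclei count divided by vehicle-well nuclei count. Lung cancer cell lines in 1536-well plates were dosed by pin tool a day after seeding, alone with one drug or with a fixed anchor-drug dose plus five library-drug doses (not always all listed) in √10 steps, and nuclei were counted after 5 days.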
# BMX-IN-1 + Navitoclax = compound: C=CC(=O)Nc1cc(-n2c(=O)ccc3cnc4ccc(-c5ccc(NS(C)(=O)=O)cc5)cc4c32)ccc1C [BMX-IN-1] + CC1(C)CCC(c2ccc(Cl)cc2)=C(CN2CCN(c3ccc(C(=O)NS(=O)(=O)c4ccc(N[C@H](CCN5CCOCC5)CSc5ccccc5)c(S(=O)(=O)C(F)(F)F)c4)cc3)CC2)C1 [Navitoclax] (partner 0.5 µM)
# How it was run: as §1
# PAC-1 + Palbociclib = compound: C=CCc1cccc(/C=N/NC(=O)CN2CCN(Cc3ccccc3)CC2)c1O [PAC-1] + CC(=O)c1c(C)c2cnc(Nc3ccc(N4CCNCC4)cn3)nc2n(C2CCCC2)c1=O [Palbociclib] (partner 0.5 µM)
# How it was run: as §1
# PAC-1 + Decitabine = compound: C=CCc1cccc(/C=N/NC(=O)CN2CCN(Cc3ccccc3)CC2)c1O [PAC-1] + Nc1ncn([C@H]2C[C@H](O)[C@@H](CO)O2)c(=O)n1 [Decitabine] (partner 2 µM)
# How it was run: as §1
# BMX-IN-1 + Tozasertib = compound: C=CC(=O)Nc1cc(-n2c(=O)ccc3cnc4ccc(-c5ccc(NS(C)(=O)=O)cc5)cc4c32)ccc1C [BMX-IN-1] + Cc1cc(Nc2cc(N3CCN(C)CC3)nc(Sc3ccc(NC(=O)C4CC4)cc3)n2)n[nH]1 [Tozasertib] (partner 0.1 µM)
# How it was run: as §1
Cell Line,relative viability (PAC-1 + Alpelisib; first compound 0.02 µM),relative viability (PAC-1 + Alpelisib; first compound 0.06325 µM),relative viability (PAC-1 + Alpelisib; first compound 0.2 µM),relative viability (PAC-1 + Alpelisib; first compound 2 µM),relative viability (BMX-IN-1 + Navitoclax; first compound 0.02 µM),relative viability (BMX-IN-1 + Navitoclax; first compound 0.2 µM),relative viability (BMX-IN-1 + Navitoclax; first compound 0.6325 µM),relative viability (BMX-IN-1 + Navitoclax; first compound 2 µM),relative viability (PAC-1 + Palbociclib; first compound 0.02 µM),relative viability (PAC-1 + Palbociclib; first compound 0.06325 µM),relative viability (PAC-1 + Palbociclib; first compound 0.2 µM),relative viability (PAC-1 + Palbociclib; first compound 2 µM),relative viability (PAC-1 + Decitabine; first compound 0.02 µM),relative viability (PAC-1 + Decitabine; first compound 0.06325 µM),relative viability (PAC-1 + Decitabine; first compound 0.2 µM),relative viability (PAC-1 + Decitabine; first compound 2 µM),relative viability (BMX-IN-1 + Tozasertib; first compound 0.02 µM),relative viability (BMX-IN-1 + Tozasertib; first compound 0.2 µM),relative viability (BMX-IN-1 + Tozasertib; first compound 0.6325 µM),relative viability (BMX-IN-1 + Tozasertib; first compound 2 µM)
HCC-78,0.308,0.373,0.368,0.303,0.859,0.851,1,0.863,0.477,0.454,0.505,0.465,0.749,0.639,0.529,0.649,0.472,0.474,0.52,0.36
HCC-366,0.409,0.52,0.335,0.437,1.54,1.29,1.15,1.05,0.364,0.377,0.365,0.404,0.373,0.303,0.264,0.337,0.0929,0.0929,0.112,0.1
HCC-827,0.964,0.927,0.895,1,1.02,0.992,1,1.03,0.482,0.461,0.442,0.473,0.354,0.285,0.277,0.292,0.524,0.434,0.415,0.442
HOP-62,1.07,0.875,0.798,0.85,1.42,1.17,1.21,1.12,0.463,0.437,0.51,0.46,0.255,0.213,0.177,0.236,0.431,0.413,0.388,0.373
IA-LM,0.955,0.613,0.619,0.832,0.937,0.796,0.807,0.722,,,,,,,,,,,,
LC-2-ad,0.942,0.845,0.791,0.887,0.55,0.504,0.776,0.513,0.513,0.439,0.492,0.496,0.827,0.75,0.779,0.672,0.408,0.501,0.394,0.214
LCLC-103H,0.861,0.864,1.05,0.928,,,,,0.482,0.489,0.503,0.438,0.725,0.784,0.71,0.736,0.605,0.494,0.559,0.485
NCI-H358,0.811,0.836,0.924,0.572,,,,,0.12,0.133,0.116,0.115,0.229,0.219,0.209,0.16,0.112,0.108,0.104,0.11
NCI-H522,,,,,,,,,0.866,0.984,0.962,1.11,0.607,0.641,0.614,0.697,0.573,0.666,0.605,0.532
